Several values for one entry are separate records, joined by “and”; a condition that tells them apart may be missing. Identical values can stand only once. Inconclusive results and toxic doses are left out.
Tested on: CD2F1 mice, L1210 leukemia ip, survival T/C
Assay: NCI In Vivo Anticancer Drug Screen. Data for tumor model L1210 Leukemia (intraperitoneal) in CD2F1 (CDF1) mice
Conditions: higher = longer survival
Procedure, shortened: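 In this screen, transplantable tumors were grown in mice given either the compound or its vehicle. Results were expressed as the treated measurement relative to the control measurement.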

[1] = endpoint: mean survival time, dose: 50.0 mg/kg/injection, schedule: Q01DX009 (ip), vehicle: Klucel (hydroxypropylcellulose) (HPC)
[2] = endpoint: mean survival time, dose: 100.0 mg/kg/injection, schedule: Q01DX009 (ip), vehicle: Klucel (hydroxypropylcellulose) (HPC)
[3] = endpoint: mean survival time, dose: 200.0 mg/kg/injection, schedule: Q01DX009 (ip), vehicle: Klucel (hydroxypropylcellulose) (HPC)

COc1cccc2c1C(=O)c1c(O)c3c(c(O)c1C2=O)C[C@@](O)(/C(C)=N/NC(=O)c1ccccc1)C[C@@H]3OC1CC(N)C(O)C(C)O1 (stereo partly drawn)
T/C (endpoint: mean survival time, dose: 0.5 mg/kg/injection, schedule: Q04DX003 (ip), vehicle: water): 91 % of control | T/C (endpoint: mean survival time, dose: 0.65 mg/kg/injection, schedule: Q01DX009 (ip), vehicle: saline): 117 % of control | T/C (endpoint: mean survival time, dose: 1.0 mg/kg/injection, schedule: Q01DX009 (ip), vehicle: water): 107 % of control | T/C (endpoint: mean survival time, dose: 1.0 mg/kg/injection, schedule: Q04DX003 (ip), vehicle: water): 91 % of control | T/C (endpoint: mean survival time, dose: 1.08 mg/kg/injection, schedule: Q01DX009 (ip), vehicle: saline): 120 % of control | T/C (endpoint: mean survival time, dose: 2.0 mg/kg/injection, schedule: Q01DX009 (ip), vehicle: water): 113 % of control | T/C (endpoint: mean survival time, dose: 2.0 mg/kg/injection, schedule: Q04DX003 (ip), vehicle: water): 96 % of control | T/C (endpoint: mean survival time, dose: 3.0 mg/kg/injection, schedule: Q01DX009 (ip), vehicle: saline): 150 % of control | T/C (endpoint: mean survival time, dose: 3.0 mg/kg/injection, schedule: Q04DX003 (ip), vehicle: saline): 160 % of control | T/C (endpoint: mean survival time, dose: 4.0 mg/kg/injection, schedule: Q01DX009 (ip), vehicle: water): 120 % of control | T/C (endpoint: mean survival time, dose: 4.0 mg/kg/injection, schedule: Q04DX003 (ip), vehicle: water): 105 % of control | T/C (endpoint: mean survival time, dose: 5.0 mg/kg/injection, schedule: Q04DX003 (ip), vehicle: saline): 163 % of control | T/C (endpoint: mean survival time, dose: 8.0 mg/kg/injection, schedule: Q01DX009 (ip), vehicle: saline): 110 % of control | T/C (endpoint: mean survival time, dose: 8.0 mg/kg/injection, schedule: Q04DX003 (ip), vehicle: water): 124 % of control | T/C (endpoint: mean survival time, dose: 22.2 mg/kg/injection, schedule: Q04DX003 (ip), vehicle: saline): 103 % of control | T/C (endpoint: median survival time, dose: 0.13 mg/kg/injection, schedule: Q03HX008 (ip), vehicle: water): 106 % of control | T/C (endpoint: median survival time, dose: 0.13 mg/kg/injection, schedule: Q03HX016 (ip), vehicle: water): 97 % of control | T/C (endpoint: median survival time, dose: 0.13 mg/kg/injection, schedule: Q03HX024 (ip), vehicle: water): 106 % of control | T/C (endpoint: median survival time, dose: 0.25 mg/kg/injection, schedule: Q03HX008 (ip), vehicle: water): 107 % of control | T/C (endpoint: median survival time, dose: 0.25 mg/kg/injection, schedule: Q03HX016 (ip), vehicle: water): 104 % of control | T/C (endpoint: median survival time, dose: 0.25 mg/kg/injection, schedule: Q03HX024 (ip), vehicle: water): 112 % of control | T/C (endpoint: median survival time, dose: 0.5 mg/kg/injection, schedule: Q01DX009 (ip), vehicle: water): 105 % of control | T/C (endpoint: median survival time, dose: 0.5 mg/kg/injection, schedule: Q01DX009 (sc), vehicle: water): 101 % of control | T/C (endpoint: median survival time, dose: 0.5 mg/kg/injection, schedule: Q03HX008 (ip), vehicle: water): 114 % of control | T/C (endpoint: median survival time, dose: 0.5 mg/kg/injection, schedule: Q03HX016 (ip), vehicle: water): 105 % of control | T/C (endpoint: median survival time, dose: 0.5 mg/kg/injection, schedule: Q03HX024 (ip), vehicle: water): 115 % of control | T/C (endpoint: median survival time, dose: 0.5 mg/kg/injection, schedule: Q04DX003 (ip), vehicle: water): 100 % of control | T/C (endpoint: median survival time, dose: 1.0 mg/kg/injection, schedule: Q01DX001 (ip), vehicle: water): 98 % of control | T/C (endpoint: median survival time, dose: 1.0 mg/kg/injection, schedule: Q01DX001 (sc), vehicle: water): 96 % of control | T/C (endpoint: median survival time, dose: 1.0 mg/kg/injection, schedule: Q01DX009 (ip), vehicle: water): 106 % of control | T/C (endpoint: median survival time, dose: 1.0 mg/kg/injection, schedule: Q01DX009 (sc), vehicle: water): 97 % of control | T/C (endpoint: median survival time, dose: 1.0 mg/kg/injection, schedule: Q03HX008 (ip), vehicle: water): 118 % of control | T/C (endpoint: median survival time, dose: 1.0 mg/kg/injection, schedule: Q03HX016 (ip), vehicle: water): 109 % of control | T/C (endpoint: median survival time, dose: 1.0 mg/kg/injection, schedule: Q04DX003 (ip), vehicle: water): 116 % of control and 111 % of control | T/C (endpoint: median survival time, dose: 1.0 mg/kg/injection, schedule: Q08DX002 (ip), vehicle: water): 107 % of control | T/C (endpoint: median survival time, dose: 2.0 mg/kg/injection, schedule: Q01DX001 (ip), vehicle: water): 105 % of control | T/C (endpoint: median survival time, dose: 2.0 mg/kg/injection, schedule: Q01DX001 (sc), vehicle: water): 102 % of control | T/C (endpoint: median survival time, dose: 2.0 mg/kg/injection, schedule: Q01DX009 (ip), vehicle: water): 116 % of control | T/C (endpoint: median survival time, dose: 2.0 mg/kg/injection, schedule: Q01DX009 (sc), vehicle: water): 97 % of control | T/C (endpoint: median survival time, dose: 2.0 mg/kg/injection, schedule: Q04DX003 (ip), vehicle: water): 103 % of control and 112 % of control | T/C (endpoint: median survival time, dose: 2.0 mg/kg/injection, schedule: Q08DX002 (ip), vehicle: water): 107 % of control | T/C (endpoint: median survival time, dose: 4.0 mg/kg/injection, schedule: Q01DX001 (ip), vehicle: water): 113 % of control | T/C (endpoint: median survival time, dose: 4.0 mg/kg/injection, schedule: Q01DX001 (sc), vehicle: water): 98 % of control | T/C (endpoint: median survival time, dose: 4.0 mg/kg/injection, schedule: Q01DX009 (oral), vehicle: water): 98 % of control | T/C (endpoint: median survival time, dose: 4.0 mg/kg/injection, schedule: Q01DX009 (sc), vehicle: water): 97 % of control | T/C (endpoint: median survival time, dose: 4.0 mg/kg/injection, schedule: Q03HX016 (ip), vehicle: water): 124 % of control | T/C (endpoint: median survival time, dose: 4.0 mg/kg/injection, schedule: Q03HX024 (ip), vehicle: water): 104 % of control | T/C (endpoint: median survival time, dose: 4.0 mg/kg/injection, schedule: Q04DX003 (ip), vehicle: water): 124 % of control | T/C (endpoint: median survival time, dose: 4.0 mg/kg/injection, schedule: Q08DX002 (ip), vehicle: water): 113 % of control | T/C (endpoint: median survival time, dose: 8.0 mg/kg/injection, schedule: Q01DX001 (ip), vehicle: water): 117 % of control | T/C (endpoint: median survival time, dose: 8.0 mg/kg/injection, schedule: Q01DX001 (sc), vehicle: water): 98 % of control | T/C (endpoint: median survival time, dose: 8.0 mg/kg/injection, schedule: Q01DX009 (oral), vehicle: water): 95 % of control | T/C (endpoint: median survival time, dose: 8.0 mg/kg/injection, schedule: Q01DX009 (sc), vehicle: water): 103 % of control | T/C (endpoint: median survival time, dose: 8.0 mg/kg/injection, schedule: Q08DX002 (ip), vehicle: water): 124 % of control | T/C (endpoint: median survival time, dose: 16.0 mg/kg/injection, schedule: Q01DX001 (oral), vehicle: water): 97 % of control | T/C (endpoint: median survival time, dose: 16.0 mg/kg/injection, schedule: Q01DX001 (sc), vehicle: water): 97 % of control | T/C (endpoint: median survival time, dose: 16.0 mg/kg/injection, schedule: Q01DX009 (oral), vehicle: water): 97 % of control | T/C (endpoint: median survival time, dose: 16.0 mg/kg/injection, schedule: Q01DX009 (sc), vehicle: water): 108 % of control | T/C (endpoint: median survival time, dose: 16.0 mg/kg/injection, schedule: Q04DX003 (ip), vehicle: water): 124 % of control | T/C (endpoint: median survival time, dose: 32.0 mg/kg/injection, schedule: Q01DX001 (ip), vehicle: water): 155 % of control | T/C (endpoint: median survival time, dose: 32.0 mg/kg/injection, schedule: Q01DX001 (oral), vehicle: water): 96 % of control | T/C (endpoint: median survival time, dose: 32.0 mg/kg/injection, schedule: Q01DX001 (sc), vehicle: water): 108 % of control | T/C (endpoint: median survival time, dose: 32.0 mg/kg/injection, schedule: Q04DX003 (ip), vehicle: water): 106 % of control | T/C (endpoint: median survival time, dose: 64.0 mg/kg/injection, schedule: Q01DX001 (oral), vehicle: water): 103 % of control | T/C (endpoint: median survival time, dose: 128.0 mg/kg/injection, schedule: Q01DX001 (oral), vehicle: water): 102 % of control | T/C (endpoint: median survival time, dose: 256.0 mg/kg/injection, schedule: Q01DX001 (oral), vehicle: water): 102 % of control

FC(F)(F)c1ccc2c(c1)Nc1ccccc1S2
T/C (endpoint: mean survival time, dose: 12.5 mg/kg/injection, schedule: Q04DX003 (ip), vehicle: saline): 96 % of control and 98 % of control | T/C (endpoint: mean survival time, dose: 25.0 mg/kg/injection, schedule: Q04DX003 (ip), vehicle: saline): 96 % of control and 101 % of control | T/C (endpoint: mean survival time, dose: 50.0 mg/kg/injection, schedule: Q04DX003 (ip), vehicle: saline): 101 % of control and 104 % of control | T/C (endpoint: mean survival time, dose: 100.0 mg/kg/injection, schedule: Q04DX003 (ip), vehicle: saline): 101 % of control and 104 % of control | T/C (endpoint: mean survival time, dose: 200.0 mg/kg/injection, schedule: Q04DX003 (ip), vehicle: saline): 96 % of control and 98 % of control

O=C(O)c1ccccc1C(=O)Nc1ccc(Cl)cc1
T/C (endpoint: mean survival time, dose: 100.0 mg/kg/injection, schedule: Q01DX009 (ip), vehicle: saline with Tween-80): 95 % of control | T/C (endpoint: mean survival time, dose: 100.0 mg/kg/injection, schedule: Q04DX003 (ip), vehicle: saline with Tween-80): 94 % of control | T/C (endpoint: mean survival time, dose: 200.0 mg/kg/injection, schedule: Q01DX009 (ip), vehicle: saline with Tween-80): 89 % of control | T/C (endpoint: mean survival time, dose: 200.0 mg/kg/injection, schedule: Q04DX003 (ip), vehicle: saline with Tween-80): 96 % of control | T/C (endpoint: mean survival time, dose: 400.0 mg/kg/injection, schedule: Q04DX003 (ip), vehicle: saline with Tween-80): 86 % of control

Cc1cc(NC(=O)CCc2ccc(N)cc2)ccc1S(=O)(=O)F
T/C (endpoint: mean survival time, dose: 25.0 mg/kg/injection, schedule: Q01DX009 (ip), vehicle: Klucel (hydroxypropylcellulose) (HPC)): 110 % of control | T/C [1]: 98 % of control | T/C [2]: 108 % of control | T/C [3]: 94 % of control and 106 % of control

CN(C)c1ccc(OC(=O)c2cc3ccccc3cc2O)cc1
T/C [1]: 112 % of control | T/C [2]: 108 % of control | T/C [3]: 101 % of control
